The values that follow come from US20200270225A1, “Chiral Diacylhydrazine Ligands for Modulating the Expression of Exogenous Genes via an Ecdysone Receptor Complex” (Intrexon Corporation, priority 2007, published 2020).

Each structure is given as a SMILES string. Read-outs that look alike come from different tables or passages of the source.

By EC50 is commonly meant the concentration that produces a half-maximal response.

Series [1] has as its target T1, [V390I/Y410E/E274V]-CfEcR (Choristoneura fumiferana, UniProt O77240).
T1 construct: assay construct b835
The format is cell-based. As to conditions: 3T3 Cells; for RMFI (relative maximum fold induction): relative to GS-E ligand. In short, it runs like this: (§1)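 NIH3T3 cells were transiently co-transfected with GAL4-DBD fused to CfEcR DEF domains (wild-type or V390I/Y410E/E274V), VP16-AD fused to chimeric human/Locusta RXR, and a GAL4-response luciferase reporter. Ligand was given at 8 doses, 0.01–33 µM, 0.33% DMSO, luciferase read at 48 h. EC50 came from fold induction over DMSO via three-parameter logistic fit; Relative Max FI was taken versus GS™-E ligand.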

In series [2] the target is wild-type Choristoneura fumiferana EcR (D, E and F domains) (Choristoneura fumiferana, UniProt O77240). The format is cell-based. The following applies: WT-CtEcR, 3T3 Cells; for RMFI (relative maximum fold induction): relative to GS-E ligand. In short, it runs like this:
as §1

A short description of series [3]: Dynamic vapor sorption analysis. Type of series: physicochemical. The following applies: for weight loss under desiccant condition: 20% RH; for weight gain: 70% RH, after dehydration. The text has this: At 70% RH, the weight gain is 6.3% for the R enantiomer and 6.2% for the racemate (data not shown), indicating moderate hygroscopicity for both materials.
The nature of series [4]: Solubility in pharmaceutical excipients, Assay 2 (heating, cooling, seeding). The format is physicochemical. The following applies: supersaturated solutions seeded with crystalline substance, room temperature. As for the experimental part: For each excipient, the lowest concentration at which R enantiomer or racemate of 2-Ethyl-3-methoxy-benzoic acid N′-(1-tert-butyl-butyl)-N′-(3,5-dimethyl-benzoyl)-hydrazide is insoluble in the FIG. 9 assay was identified. Suspensions of both materials at this same concentration were prepared in vials. Each sample was stirred at room temperature for ≤2.5 hr (treatment 1). As a separate experiment, test article/excipient combinations were heated in an aluminum block at 90° C. for 5 minutes, or longer as needed; indicated in FIG. 10, and allow to cool to room temperature, and seeded with a tiny amount of the same micronized substance. (treatment 2). The physical appearance was recorded at 72 hr or the indicated time (FIG. 10). In all cases, no change in color was observed. This solubility assay operates from a fully dissolved condition in which initial particle size and morphic form are irrelevant. […] Photos were taken of preparations in clear glass vials (R enantiomer under the conditions of assay 1 without heating to 90° C., and racemate after 90° C. treatment, cooling and seeding, not shown).

For `CCC[C@@H](N(NC(=O)c1cccc(OC)c1CC)C(=O)c1cc(C)cc(C)c1)C(C)(C)C` [Example 1, (R)-3,5-Dimethyl-benzoic Acid N-(1-tert-butyl-butyl)-N′-(2-ethyl-3-methoxy-benzoyl)-hydrazide], in series [1] (R), the concentration giving a half-maximal response (EC50) amounted to 0.13 nM and the “RMFI (relative maximum fold induction)” value was 0.82. Further, in series [2] (R), the EC50 worked out at 2.23 nM and the “RMFI (relative maximum fold induction)” value is 0.97. For the same compound, in series [3], the “weight loss under desiccant condition” value was 0.9 % of total weight and the weight gain is 6.3%. Further, in series [4], the “physical appearance of excipient solutions after seeding” value was “remains fully dissolved”.

As for `CCCC(N(NC(=O)c1cccc(OC)c1CC)C(=O)c1cc(C)cc(C)c1)C(C)(C)C` (racemic) [rac-1, rac-2-ethyl-3-methoxy-benzoic acid N′-(1-tert-butyl-butyl)-N′-(3,5-dimethyl-benzoyl)-hydrazide], in series [1] (rac), the EC50 is 0.14 nM and the “RMFI (relative maximum fold induction)” value is recorded as 1.05. Moreover, in series [2] (rac), the midpoint of the response, the EC50, lay at 1.63 nM and the “RMFI (relative maximum fold induction)” value is reported as 1.05. Also, in series [3], the “weight loss under desiccant condition” value is reported as “did not show any significant weight loss” and the weight gain turned out to be 6.2%. In series [4], the “physical appearance of excipient solutions after seeding” value was “precipitation/crystallization upon seeding”.
